Measured values reported in PubChem BioAssay (NCI).
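How tested: cells in 96-well plates exposed to compound for 48 hours at five concentrations. At the TGI there is no net growth.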

Tests used:
Experiment in all cases: NCI-60 cell line screen, 48 h
[1] = tested on: EKVX NSCLC
[2] = tested on: HL-60(TB) leukemia
[3] = tested on: CCRF-CEM leukemia
[4] = tested on: HOP-62 NSCLC
[5] = tested on: HCT-15 colon
[6] = tested on: KM12 colon
[7] = tested on: OVCAR-3 ovarian
[8] = tested on: SF-295 CNS
[9] = tested on: MOLT-4 leukemia
[10] = tested on: MDA-MB-231 breast
[11] = tested on: DU-145 prostate
[12] = tested on: COLO 205 colon
[13] = tested on: LOX IMVI melanoma
[14] = tested on: SK-OV-3 ovarian
[15] = tested on: A549 NSCLC
[16] = tested on: SF-539 CNS
[17] = tested on: OVCAR-5 ovarian
[18] = tested on: HCT-116 colon
[19] = tested on: UACC-62 melanoma
[20] = tested on: NCI/ADR-RES ovarian
[21] = tested on: NCI-H23 lung
[22] = tested on: SF-268 CNS
[23] = tested on: NCI-H522 lung
[24] = tested on: BT-549 breast
[25] = tested on: RPMI-8226 leukemia
[26] = tested on: NCI-H226 lung
[27] = tested on: T-47D breast
[28] = tested on: UACC-257 melanoma
[29] = tested on: MALME-3M melanoma
[30] = tested on: HT29 colon
[31] = tested on: A498 renal
[32] = tested on: HOP-92 NSCLC
[33] = tested on: SR leukemia
[34] = tested on: SW-620 colon
[35] = tested on: PC-3 prostate
[36] = tested on: 786-0 renal
[37] = tested on: UO-31 renal
[38] = tested on: SK-MEL-28 melanoma
[39] = tested on: HS 578T breast
[40] = tested on: M14 melanoma
[41] = tested on: OVCAR-4 ovarian
[42] = tested on: MDA-N
[43] = tested on: NCI-H460 lung
[44] = tested on: MDA-MB-435
[45] = tested on: ACHN renal
[46] = tested on: CAKI-1 renal
[47] = tested on: SK-MEL-2 melanoma
[48] = tested on: SNB-19 CNS
[49] = tested on: TK-10 renal
[50] = tested on: U251 CNS
[51] = tested on: MCF7 breast
[52] = tested on: K-562 leukemia
[53] = tested on: HCC-2998 colon
[54] = tested on: SK-MEL-5 melanoma
[55] = tested on: OVCAR-8 ovarian
[56] = tested on: RXF 393 renal
[57] = tested on: IGROV1 ovarian
[58] = tested on: SN12C renal
[59] = tested on: SNB-75 CNS

SMILES: COc1cc(C2SCC(=O)N2c2ccc(-n3c(-c4ccccc4)nc4ccccc4c3=O)cc2)ccc1O (configuration not stated)
- TGI [1]: > 100 µM
- TGI [2]: > 100 µM
- TGI [3]: > 100 µM
- TGI [4]: > 100 µM
- TGI [5]: > 100 µM
- TGI [6]: > 100 µM
- TGI [7]: > 100 µM
- TGI [8]: > 100 µM
- TGI [9]: > 100 µM
- TGI [10]: > 100 µM
- TGI [11]: > 100 µM
- TGI [12]: > 100 µM
- TGI [13]: > 100 µM
- TGI [14]: > 100 µM
- TGI [15]: > 100 µM
- TGI [16]: > 100 µM
- TGI [17]: > 100 µM
- TGI [18]: > 100 µM
- TGI [19]: > 100 µM
- TGI [20]: > 100 µM
- TGI [21]: > 100 µM
- TGI [22]: > 100 µM
- TGI [23]: > 100 µM
- TGI [24]: > 100 µM
- TGI [25]: > 100 µM
- TGI [26]: > 100 µM
- TGI [27]: > 100 µM
- TGI [28]: > 100 µM
- TGI [29]: > 100 µM
- TGI [30]: > 100 µM
- TGI [31]: > 100 µM
- TGI [32]: 68.9 µM
- TGI [33]: > 100 µM
- TGI [34]: > 100 µM
- TGI [35]: > 100 µM
- TGI [36]: > 100 µM
- TGI [37]: 97.7 µM
- TGI [38]: > 100 µM
- TGI [39]: > 100 µM
- TGI [40]: > 100 µM
- TGI [41]: > 100 µM
- TGI [42]: > 100 µM
- TGI [43]: > 100 µM
- TGI [44]: > 100 µM
- TGI [45]: > 100 µM
- TGI [46]: > 100 µM
- TGI [47]: > 100 µM
- TGI [48]: > 100 µM
- TGI [49]: > 100 µM
- TGI [50]: > 100 µM
- TGI [51]: > 100 µM
- TGI [52]: > 100 µM
- TGI [53]: > 100 µM
- TGI [54]: > 100 µM
- TGI [55]: > 100 µM

SMILES: Cc1ccc(N=Nc2c(O)ccc3cc(S(=O)(=O)O)ccc23)c(C)c1
- TGI [1]: > 100 µM
- TGI [2]: > 100 µM
- TGI [3]: > 100 µM
- TGI [4]: > 100 µM
- TGI [5]: > 100 µM
- TGI [6]: > 100 µM
- TGI [7]: > 100 µM
- TGI [8]: > 100 µM
- TGI [9]: > 100 µM
- TGI [56]: > 100 µM
- TGI [10]: > 100 µM
- TGI [11]: > 100 µM
- TGI [12]: > 100 µM
- TGI [14]: > 100 µM
- TGI [15]: > 100 µM
- TGI [16]: > 100 µM
- TGI [17]: > 100 µM
- TGI [18]: > 100 µM
- TGI [19]: > 100 µM
- TGI [20]: > 100 µM
- TGI [21]: > 100 µM
- TGI [22]: > 100 µM
- TGI [23]: > 100 µM
- TGI [24]: > 100 µM
- TGI [26]: > 100 µM
- TGI [27]: > 100 µM
- TGI [28]: > 100 µM
- TGI [29]: > 100 µM
- TGI [30]: > 100 µM
- TGI [31]: > 100 µM
- TGI [57]: > 100 µM
- TGI [32]: > 100 µM
- TGI [33]: > 100 µM
- TGI [34]: > 100 µM
- TGI [35]: > 100 µM
- TGI [36]: > 100 µM
- TGI [37]: > 100 µM
- TGI [38]: > 100 µM
- TGI [39]: > 100 µM
- TGI [40]: > 100 µM
- TGI [41]: > 100 µM
- TGI [42]: > 100 µM
- TGI [43]: > 100 µM
- TGI [44]: > 100 µM
- TGI [45]: > 100 µM
- TGI [58]: > 100 µM
- TGI [46]: > 100 µM
- TGI [47]: > 100 µM
- TGI [48]: > 100 µM
- TGI [49]: > 100 µM
- TGI [59]: > 100 µM
- TGI [50]: > 100 µM
- TGI [51]: > 100 µM
- TGI [52]: > 100 µM
- TGI [53]: > 100 µM
- TGI [54]: > 100 µM
- TGI [55]: > 100 µM
